Experimental data taken from patent US9809853B2, “Calcium-activated chloride channel involved in human sweat formation” (BRAIN Biotechnology Research and Information Network AG, priority 2012, dated 2017).

Target: T1, CaCC (Ca^2+-activated chloride channels) in NCL-SG3-hsYFP cells (Homo sapiens, UniProt Q5XXA6)
T1 sequence (Q5XXA6 1-986): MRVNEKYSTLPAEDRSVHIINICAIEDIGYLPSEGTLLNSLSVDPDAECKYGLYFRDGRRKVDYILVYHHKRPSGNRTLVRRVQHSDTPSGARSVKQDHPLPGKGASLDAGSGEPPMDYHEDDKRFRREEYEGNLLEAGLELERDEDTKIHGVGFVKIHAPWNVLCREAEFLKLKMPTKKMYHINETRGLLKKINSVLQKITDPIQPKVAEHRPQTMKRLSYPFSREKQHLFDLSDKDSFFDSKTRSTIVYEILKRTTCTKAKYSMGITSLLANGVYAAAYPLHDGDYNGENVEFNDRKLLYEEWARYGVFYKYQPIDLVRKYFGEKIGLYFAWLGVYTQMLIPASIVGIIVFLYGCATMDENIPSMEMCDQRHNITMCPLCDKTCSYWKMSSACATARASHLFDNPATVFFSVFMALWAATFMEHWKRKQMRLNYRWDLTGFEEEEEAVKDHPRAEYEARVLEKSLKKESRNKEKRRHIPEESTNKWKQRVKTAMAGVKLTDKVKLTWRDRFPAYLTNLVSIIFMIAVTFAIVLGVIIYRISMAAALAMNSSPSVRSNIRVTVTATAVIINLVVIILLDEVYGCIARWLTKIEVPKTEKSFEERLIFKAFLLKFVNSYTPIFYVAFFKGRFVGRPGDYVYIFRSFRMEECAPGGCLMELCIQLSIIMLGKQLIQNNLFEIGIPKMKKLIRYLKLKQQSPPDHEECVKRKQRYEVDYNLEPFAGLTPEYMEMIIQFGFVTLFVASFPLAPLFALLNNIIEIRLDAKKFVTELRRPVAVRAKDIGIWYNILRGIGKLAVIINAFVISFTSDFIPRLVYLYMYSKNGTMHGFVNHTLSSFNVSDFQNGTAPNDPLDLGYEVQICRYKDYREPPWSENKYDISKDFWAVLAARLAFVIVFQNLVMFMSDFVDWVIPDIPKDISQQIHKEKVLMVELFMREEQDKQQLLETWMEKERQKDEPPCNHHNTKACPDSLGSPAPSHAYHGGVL
Assay: hsYFP fluorescence quenching (Cl^− efflux/I^− influx) assay in NCL-SG3-hsYFP CaCC activity sensor cells
Format: cell-based
Procedure: The halide inside the cell functionally interacts with the halide-sensitive cytoplasmic indicator protein, which leads to a quenching of the signal provided by the halide-sensitive cytoplasmic indicator protein. The more halide (such as e.g. iodide) flows into the cell, the weaker the signal emitted by the halide-sensitive cytoplasmic indicator protein becomes. This alteration of the signal emitted by the halide-sensitive cytoplasmic indicator protein is determined in a third step of the method of the invention. Due to the fact that the influx of halide into the cell is proportional to the efflux of chloride ions, the halide influx is used as a direct measure for chloride secretion. To determine the amount of chloride secretion, the fluorescence decrease is plotted against time (Δfluorescence/Δtime) and the initial slope of the resulting graph represents the iodide influx rate (sec^−1), which in turn is directly proportional to the chloride efflux rate, representing the amount of chloride secretion per time. In a fourth step, this amount of chloride secretion determined in the presence of a test compound is compared to the amount of chloride secretion determined in the absence of a said compound.
Effect of CaCC inhibitors on sweat gland-specific Ca^2+-dependent […] and proportional I^− influx was determined using NCL-SG3-hsYFP cells. Quenching of intracellular hsYFP fluorescence was measured and plotted over time. Exemplary raw data (B) and fitted curves are shown (A). NCL-SG3-hsYFP cells were incubated with 50 μM tannic acid (TA), 25 μM niflumic acid (NFA), 25 μM 5-nitro-2-(3-phenylpropyl-amino) benzoic acid (NPPB), 100 μM epigallocatechin-3-gallate (EGCG) for 15 min and then stimulated with 330 μM ATP.
Sweat gland-specific Ca^2+-dependent Cl^− efflux and a proportional I^− influx was determined using NCL-SG3-hsYFP cells. Quenching of intracellular hsYFP fluorescence was measured and plotted over time. Exemplary fitted curves are shown. NCL-SG3-hsYFP cells were incubated with increasing concentrations of tannic acid (TA) and then stimulated with 330 μM ATP. […] NCL-SG3-hsYFP cells were incubated with increasing concentrations of CaCC inhibitors and quenching of intracellular hsYFP fluorescence was measured after stimulation with ATP. The rate of […] (sec^−1), which is proportional to Ca^2+-dependent […] was calculated from the initial slope of the measured hsYFP fluorescence (ΔYFP fluorescence/Δtime) and is a direct measure of CaCC activity. IC50 values were determined by plotting the percentage of residual CaCC activity against the individual inhibitor concentration.
NCL-SG3-hsYFP cells were routinely cultivated in Williams' Medium E supplemented with 9% Fetal Calf Serum, 3.5 mM Glutamine, 9 ng/μl Hydrocortisone, Insulin-Transferrin-Selenium-Supplement (PAA Laboratories) at 37° C. and 5% CO2. For microplate assays, 20,000 cells were seeded in 96-well black-walled, clear bottom microplates (Costar) and cultivated for 2 days until cells reached confluency. Cells were washed three times with 100 μl modified Krebs-Henseleit (KH) buffer (137 mM NaCl, 2.7 mM KCl, 1.2 mM MgSO4, 1.2 mM KH2PO4, 4.2 mM NaHCO3, 1.3 mM CaCl2, 10 mM HEPES, pH 7.4) and incubated with the test compound in 50 μl KH-buffer for 15 min at 37° C. and 5% CO2. Microplates were transferred into an automated fluorescence plate reader (FlexStation®, Molecular Devices) and cellular hsYFP fluorescence was continuously recorded every 3.5 sec until end of the experiment (excitation at 485 nm, emission at 535 nm, cutoff 515 nm).

| Structure (SMILES) | Quenching of hsYFP fluorescence after addition of Ca^2+-elevating agent (330 μM) | Concentration giving maximal quenching of hsYFP (dose-dependent stimulation of Ca^2+-dependent Cl^− transport) | Effect on hsYFP quenching by Cl^− efflux/I^− influx mediated by ATP (50 μM, 15 min, then 330 μM ATP) | Dose dependence of inhibition of CaCC-mediated Cl^− efflux (increasing inhibitor concentrations, stimulation with 330 μM ATP) | Effect of pretreatment on basal hsYFP quenching (unactivated cells (no ATP)) |
| --- | --- | --- | --- | --- | --- |
| Nc1ncnc2c1ncn2[C@@H]1O[C@H](COP(=O)(O)OP(=O)(O)OP(=O)(O)O)[C@@H](O)[C@H]1O [ATP] | fast quenching of the hsYFP fluorescence without recovery | 330 µM | – | – | – |
| O=C(OC[C@H]1O[C@@H](OC(=O)c2cc(O)c(O)c(OC(=O)c3cc(O)c(O)c(O)c3)c2)[C@H](OC(=O)c2cc(O)c(O)c(OC(=O)c3cc(O)c(O)c(O)c3)c2)[C@@H](OC(=O)c2cc(O)c(O)c(OC(=O)c3cc(O)c(O)c(O)c3)c2)[C@@H]1OC(=O)c1cc(O)c(O)c(OC(=O)c2cc(O)c(O)c(O)c2)c1)c1cc(O)c(O)c(OC(=O)c2cc(O)c(O)c(O)c2)c1 [TA, tannic acid] | – | – | significant reduction of hsYFP quenching | dose-dependent reduction of hsYFP quenching | significant reduction of basal hsYFP quenching |
